{"source": "patent US6818637B2", "about": "“Polyhydroxypyrazine derivatives, their preparation and the pharmaceutical compositions which comprise them” (Aventis Pharma SA, priority 1999, dated 2004)", "system": "hyperglycemic response to the oral administration of glucose", "experiment": "Inhibition of the hyperglycemic response to oral glucose in the normoglycemic mouse", "type": "in vivo, Swiss albino mice", "details": "mice, administration at 3 mg/kg; reference 2-(1,2,3,4-tetrahydroxybutyl)-5-(2′,3′,4′-trihydroxybutyl)]pyrazine", "protocol": "The hypoglycemic activity of the products of formula (I) was determined with respect to the hyperglycemic response to the oral administration of glucose in the normoglycemic mouse, according to the protocol described in Example 3. Swiss albino mice weighing between 22 and 26 g are left without nourishment for 2 hours. At the end of this period, the glycemia is measured and, immediately after, a dose of glucose (2 g/kg) is administered orally. Thirty minutes later, the glycemia is once again measured. The mice which respond by a hyperglycemia greater than 170 mg/dl are selected and used to detect the hypoglycemic activity of the products according to the invention. The mice thus chosen are divided into groups of at least 10 animals. Several groups receive doses of 3 to 50 mg/kg of product in a vehicle, such as water or a mixture of methylcellulose/tween and water, once daily by gastric intubation. The treatment lasts 4 days. On the 4th day, after the final treatment, the animals receive a dose of glucose (2 g/kg) and the glycemia is measured 20 to 40 minutes later. The percentage of inhibition of the hyperglycemic response to the administration of glucose is calculated with respect to the response measured in the group treated with the vehicle."}
{"smiles": "O=C(OC[C@@H](O)[C@@H](O)[C@H](O)c1cnc(C[C@H](O)[C@H](O)COC(=O)C2CCCCC2)cn1)C1CCCCC1", "note": "[Example 1, 4,4′-O,O-Dicyclohexyloyl-2-[(1R,2S,3R)(1,2,3,4-tetrahydroxylbutyl)]-5-[(2′S,3′R)(2′,3′,4′-trihydroxybutyl)]pyrazine]", "values": [{"measurement": "relative activity with respect to the reference product", "value": 149, "unit": "%"}]}
